Results taken from US7256028B2, “Methods for screening compounds that modulate lipid metabolism” (Xenon Genetics Inc., priority 2000, dated 2007).

Key:
[1] = system: D6D Promoter (human delta-6-desaturase control region, pRh4002.1); test: CAT reporter assay, basal activity of D6D promoter in ZR-75-1 cell line; format: cell-based; settings: ZR-75-1 cells transfected with pRh4002.1 (D6D) plus agent; CAT activity normalized to pCat3-Control = 100; pRh4002.1 alone 75.91
delta-5-desaturase = target: T1, delta-5-desaturase (Rattus norvegicus, UniProt Q920R3); test: Inhibition of delta-5-desaturase activity in rat liver microsomes; format: biochemical
T1 construct: from tissue; host or cells: liver microsomes of Wistar rats
T1 sequence (Q920R3 whole entry): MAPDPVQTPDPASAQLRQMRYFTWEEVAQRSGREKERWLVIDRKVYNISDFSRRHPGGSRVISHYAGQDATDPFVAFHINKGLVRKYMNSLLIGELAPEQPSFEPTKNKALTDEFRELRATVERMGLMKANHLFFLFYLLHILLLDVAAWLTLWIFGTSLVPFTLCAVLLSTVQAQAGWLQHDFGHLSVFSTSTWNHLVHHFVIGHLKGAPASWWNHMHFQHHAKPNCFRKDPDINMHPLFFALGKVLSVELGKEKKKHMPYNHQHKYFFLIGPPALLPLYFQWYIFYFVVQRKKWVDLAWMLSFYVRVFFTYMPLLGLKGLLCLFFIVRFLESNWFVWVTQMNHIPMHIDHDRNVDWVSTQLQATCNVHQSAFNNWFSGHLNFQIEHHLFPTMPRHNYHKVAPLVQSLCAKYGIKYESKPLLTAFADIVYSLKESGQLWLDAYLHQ
Protocol: Preparation rat liver microsomes: Wistar rats under light halothane (15% in mineral oil) anesthesia were sacrificed by exsanguination during periods of high enzyme activity. Livers are immediately rinsed with cold 0.9% NaCl solution, weighed and minced with scissors. All procedures are performed at 4° C. unless specified otherwise. Livers are homogenized in a solution (1:3 w/v) containing 0.25 M sucrose, 62 mM. potassium phosphate buffer (pH 7.0), 0.15 M KCl, 1.5 mM N-acetylcysteine, 5 mM MgCl2, and 0.1 mM EDTA using 4 strokes of a Potter-Elvehjem tissue homogenizer. The homogenate is centrifuged at 10,400×g for 20 min to eliminate mitochondria and cellular debris. The supernatant is filtered through a 3-layer cheesecloth and centrifuged at 105,000×g for 60 min. The microsomal pellet is gently resuspended in the same homogenization solution with a small glass/teflon homogenizer and stored at −70° C. The absence of mitochondrial contamination is enzymatically assessed. The protein concentration is measured using bovine serum albumin as the standard.
Incubation of rat liver microsomes with delta-5-desaturase modulators: Reactions are started by adding 2 mg of microsomal protein to pre-incubated tubes containing 0.20 μCi of the substrate fatty acid (DLL) at a final concentration of 33.3 μM in 1.5 ml of homogenization solution, containing NaF (42 mM), niacinamide (0.33 mM), ATP (1.57 mM), NADH (1.0 mM), coenzyme A (0.09 mM) and a range of concentrations of the enzyme modulators. N-propyl gallate was added to the incubation medium to a final concentration of 0.02-0.32 mM. The tubes are vortexed vigorously and after 15 min incubation in a shaking water bath (37° C.), the reactions are stopped and fatty acids are analyzed as described in Example 6. Alternatively, fatty acid methyl esters are analyzed by capillary column gas chromatography (GC).

[2] = system: whole cells of Saccharomyces cerevisiae; test: Cell density (O.D.600) and substrate radioactivity recovered in whole yeast incubated with inhibitor; format: cell-based
Protocol: (§2) Incubation of Whole Yeast: Saccharomyces cerevisiae transformed with either pYr5014.1 or pTh5009.1 were incubated in a 125 ml Erlenmeyer flask containing 9 ml of SC-U medium with 1% tergitol (O.D.600 0.4, approximately 3.2×10^6 cells/ml) and 200 μl of n-propyl gallate in ethanol (final concentration in the culture ranged between 1.7-14.0 mM). After I h incubation in an orbital incubator at 270 rpm and 30° C., 1 μCi of potassium salt of [1-^14C]-dihomogammalinolenic acid (dissolved in SC-U medium and 1% tergitol) was added to the cell suspension to a final concentration of 2 μM. After 5 h incubation with the inhibitor, cells reached the log phase and the transgene expression was induced with the addition of 1 ml of galactose to a final concentration of 2%. Yeast were further incubated for 19 h (O.D.600 range: 5-10) until they were harvested by centrifugation at 5000×g for 10 minutes at 4° C.

rat delta-5-desaturase [3] = target: T2, rat delta-5-desaturase (Rattus norvegicus, UniProt Q920R3, Q29H/R30G); test: Inhibition of rat delta-5-desaturase in whole cells of Saccharomyces cerevisiae transformed with pYr5014.1; format: cell-based
T2 construct: A rD5D cDNA fragment spanning nucleotides +1 to +1344 was cloned by RT-PCR using total RNA extracted from rat liver tissue; expressed in transfected cells; host or cells: Saccharomyces cerevisiae INVSc1 transformed with pYr5014.1 (pYES2 backbone), galactose-induced; whole cells or spheroplasts
T2 sequence (Q920R3 1-447 Q29H/R30G): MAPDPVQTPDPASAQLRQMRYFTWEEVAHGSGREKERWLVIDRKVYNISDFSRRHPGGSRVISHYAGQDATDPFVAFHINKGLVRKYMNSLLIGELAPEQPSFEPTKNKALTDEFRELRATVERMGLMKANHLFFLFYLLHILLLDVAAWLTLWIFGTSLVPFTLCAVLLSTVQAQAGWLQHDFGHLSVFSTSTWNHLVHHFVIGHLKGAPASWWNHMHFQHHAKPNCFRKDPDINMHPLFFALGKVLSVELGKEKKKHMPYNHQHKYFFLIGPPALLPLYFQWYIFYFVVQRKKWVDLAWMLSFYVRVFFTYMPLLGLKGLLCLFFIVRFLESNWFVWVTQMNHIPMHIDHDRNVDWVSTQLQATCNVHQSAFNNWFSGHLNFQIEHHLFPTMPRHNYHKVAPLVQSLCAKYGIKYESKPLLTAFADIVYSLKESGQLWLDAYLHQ
Protocol: as §2
(§3) Calculations: The delta-5-desaturase activity was determined by measuring the conversion of radiolabelled dihomogammalinolenic acid to arachidonic acid (20:3n-6 to 20:4n-6). The percent inhibition was calculated as described elsewhere (Kawashima et al., 1996, Biosci. Biotech. Biochem., 60:1672-1676): % Inhibition=100(activity without the inhibitor−activity with the inhibitor)/activity without the inhibitor

human delta-5-desaturase [4] = target: T3, human delta-5-desaturase (Homo sapiens, UniProt O60427); test: Inhibition of human delta-5-desaturase in whole cells of Saccharomyces cerevisiae transformed with pTh5009.1; format: cell-based
T3 construct: expressed in transfected cells; host or cells: Saccharomyces cerevisiae INVSc1 transformed with pTh5009.1 (pYES2/CT backbone), galactose-induced; whole cells or spheroplasts
T3 sequence (O60427 with tags, fused parts or gaps): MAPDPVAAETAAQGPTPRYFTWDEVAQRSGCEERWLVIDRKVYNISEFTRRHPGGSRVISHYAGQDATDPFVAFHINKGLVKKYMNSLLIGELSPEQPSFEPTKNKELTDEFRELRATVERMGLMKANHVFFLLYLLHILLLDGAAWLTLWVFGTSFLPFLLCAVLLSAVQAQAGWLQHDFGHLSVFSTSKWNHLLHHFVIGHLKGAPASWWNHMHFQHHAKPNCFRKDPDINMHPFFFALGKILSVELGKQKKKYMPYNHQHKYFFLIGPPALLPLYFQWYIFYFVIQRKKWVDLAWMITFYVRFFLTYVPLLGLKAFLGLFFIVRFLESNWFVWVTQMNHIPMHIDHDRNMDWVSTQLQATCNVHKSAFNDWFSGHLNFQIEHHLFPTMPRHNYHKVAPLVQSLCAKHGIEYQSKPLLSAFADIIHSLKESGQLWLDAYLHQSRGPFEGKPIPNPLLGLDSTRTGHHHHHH
Protocol: as §2, §3

[5] = system: spheroplasts of Saccharomyces cerevisiae; test: Cell density (O.D.600) and substrate radioactivity recovered in spheroplasts incubated with inhibitor
Excerpt: Total lipids were extracted and analyzed as described in Example 6.

rat delta-5-desaturase [6] = target: T2, rat delta-5-desaturase; test: Inhibition of rat delta-5-desaturase in spheroplasts of Saccharomyces cerevisiae transformed with pYr5014.1; format: cell-based
Protocol: (§1) After 16 h incubation, spheroplasts were prepared as previously described in Example 8.

human delta-5-desaturase [7] = target: T3, human delta-5-desaturase; test: Inhibition of human delta-5-desaturase in spheroplasts of Saccharomyces cerevisiae transformed with pTh5009.1; format: cell-based
Protocol: as §1

fatty acid desaturases = settings: Kawashima et al., 1996; cited from earlier work
[8] = n-propyl gallate 0.25 mM, 20:3n-6 to 20:4n-6

CC/C=C\C/C=C\C/C=C\C/C=C\C/C=C\C/C=C\CCC(=O)O [DHA, docosahexaenoic acid]
Percent Activity Compared to Controls [1]: 19.82 ± 1.41%

CCCOC(=O)c1cc(O)c(O)c(O)c1 [n-propyl gallate, 3,4,5-Trihydoxybenzoic acid propyl ester]
concentration of the inhibitor at which a plateau of inhibition was reached (delta-5-desaturase): 0.08 to 0.32 mM | % of inhibition (delta-5-desaturase; n-propyl gallate 0.02 mM, activity without inhibitor 394 pmol/mg microsomal protein/min): 62.9% | % of inhibition (delta-5-desaturase; n-propyl gallate 0.04 mM): 74.9% | % of inhibition (delta-5-desaturase; n-propyl gallate 0.08 mM): 86.4% | % of inhibition (delta-5-desaturase; n-propyl gallate 0.16 mM): 88.7% | % of inhibition (delta-5-desaturase; n-propyl gallate 0.32 mM): 100.0% | O.D.600 ([2]; n-propyl gallate 1.7 mM, pTh5009.1, without inhibitor 10.9): 9.0 | O.D.600 ([2]; n-propyl gallate 3.5 mM, pTh5009.1): 9.9 | O.D.600 ([2]; n-propyl gallate 7.0 mM, pTh5009.1): 10.5 | O.D.600 ([2]; n-propyl gallate 7.0 mM, pYr5014.1, without inhibitor 6.7): 6.5 | O.D.600 ([2]; n-propyl gallate 14.0 mM, pYr5014.1): 5.4 | % inhibition (rat delta-5-desaturase [3]; n-propyl gallate 7.0 mM, gene induced after addition of inhibitor): 38.9% | % inhibition (rat delta-5-desaturase [3]; n-propyl gallate 14.0 mM): 68.5% | % inhibition (human delta-5-desaturase [4]; n-propyl gallate 1.7 mM, gene induced after addition of inhibitor): 25.0% | % inhibition (human delta-5-desaturase [4]; n-propyl gallate 3.5 mM): 63.3% | % inhibition (human delta-5-desaturase [4]; n-propyl gallate 7.0 mM): 100.0% | O.D.600 ([5]; n-propyl gallate 0.25 mM, pTh5009.1, without inhibitor 2.6): 2.4 | O.D.600 ([5]; n-propyl gallate 0.25 mM, pYr5014.1, without inhibitor 3.2): 2.8 | O.D.600 ([5]; n-propyl gallate 0.50 mM, pTh5009.1): 2.5 | O.D.600 ([5]; n-propyl gallate 1.00 mM, pTh5009.1): 2.5 | O.D.600 ([5]; n-propyl gallate 1.00 mM, pYr5014.1): 2.9 | O.D.600 ([5]; n-propyl gallate 2.00 mM, pTh5009.1): 2.2 | O.D.600 ([5]; n-propyl gallate 2.00 mM, pYr5014.1): 2.7 | O.D.600 ([5]; n-propyl gallate 4.00 mM, pTh5009.1): 2.4 | O.D.600 ([5]; n-propyl gallate 4.00 mM, pYr5014.1): 2.9 | O.D.600 ([5]; n-propyl gallate 8.00 mM, pTh5009.1): 1.2 | O.D.600 ([5]; n-propyl gallate 8.00 mM, pYr5014.1): 2.8 | cytotoxicity (consistent O.D.600 readings) ([5]; n-propyl gallate between 0.7-4.0 mM): not cytotoxic | % inhibition (rat delta-5-desaturase [6]; [8]): 4.3% | % inhibition (rat delta-5-desaturase [6]; n-propyl gallate 1.00 mM): 7.0% | % inhibition (rat delta-5-desaturase [6]; n-propyl gallate 2.00 mM): 20.5% | % inhibition (rat delta-5-desaturase [6]; n-propyl gallate 4.00 mM): 50.4% | % inhibition (rat delta-5-desaturase [6]; n-propyl gallate 8.00 mM): 81.9% | % inhibition (human delta-5-desaturase [7]; [8]): 14.6% | % inhibition (human delta-5-desaturase [7]; n-propyl gallate 0.50 mM): 17.6% | % inhibition (human delta-5-desaturase [7]; n-propyl gallate 1.00 mM): 24.0% | % inhibition (human delta-5-desaturase [7]; n-propyl gallate 2.00 mM): 41.0% | % inhibition (human delta-5-desaturase [7]; n-propyl gallate 4.00 mM): 100.0% | % inhibition (human delta-5-desaturase [7]; n-propyl gallate 8.00 mM): 100.0% | type of inhibition of fatty acid desaturases (fatty acid desaturases): noncompetitive inhibitor
